# Key:
# Format in all cases: physicochemical
# [1] = Solubility in toluene and methyl ethyl ketone, three-point scale
# From the text: In these tables, the solubility is rated on the three-point scale, wherein Δ stands for a solubility of less than 1% by weight, .largecircle. for a solubility in the approximate range of 1 to 3% by weight, and .circleincircle. for a solubility of not less than 3% by weight.
# Color tone of the dye = settings: Tables 1-9
# [2] = Visible absorption spectrum (λmax, ε); settings: for ε: in M-1 cm-1 (unit assumed)
Structure (SMILES),Solubility in methyl ethyl ketone [1],Solubility in toluene ([1]; in toluene),Color tone (Color tone of the dye),λ max ([2]; in chloroform),"ε ([2]; in chloroform, at λ max)",λ max ([2]; in methanol),ε ([2]; in methanol),Solubility ([1]; in toluene),λ max ([2]; in toluene),ε ([2]; in toluene),ε ([2]; in ethyl cellosolve)
O=C1c2c(O)ccc(O)c2C(=O)c2c(F)c(Nc3ccccc3)c(F)c(F)c21 [(1)],Δ (a solubility of less than 1% by weight),.largecircle. (a solubility in the approximate range of 1 to 3% by weight),Magenta,533 nm,14800,,,,,,
CCOC(=O)c1cccc(Nc2c(F)c(F)c3c(c2F)C(=O)c2c(O)ccc(O)c2C3=O)c1 [(4)],.largecircle. (a solubility in the approximate range of 1 to 3% by weight),.largecircle. (a solubility in the approximate range of 1 to 3% by weight),Magenta,527 nm,15300,,,,,,
CCCCOC(=O)c1ccccc1Nc1c(F)c(F)c2c(c1F)C(=O)c1c(O)ccc(O)c1C2=O [(5)],.circleincircle. (a solubility of not less than 3% by weight),.circleincircle. (a solubility of not less than 3% by weight),Magenta,530 nm,8600,,,,,,
CCCCOC(=O)c1ccc(Nc2c(F)c(F)c3c(c2F)C(=O)c2c(O)ccc(O)c2C3=O)cc1 [(6)],.largecircle. (a solubility in the approximate range of 1 to 3% by weight),.largecircle. (a solubility in the approximate range of 1 to 3% by weight),Magenta,528 nm,17900,,,,,,
CCCCCCCCOC(=O)c1cccc(Nc2c(F)c(F)c3c(c2F)C(=O)c2c(O)ccc(O)c2C3=O)c1 [(8)],.largecircle. (a solubility in the approximate range of 1 to 3% by weight),.largecircle. (a solubility in the approximate range of 1 to 3% by weight),Magenta,526 nm,17600,,,,,,
N#Cc1ccc(Nc2c(F)c(F)c3c(c2F)C(=O)c2c(O)ccc(O)c2C3=O)cc1 [(10)],Δ (a solubility of less than 1% by weight),Δ (a solubility of less than 1% by weight),Magenta,523 nm,20600,,,,,,
O=C1c2c(O)ccc(O)c2C(=O)c2c(F)c(Nc3ccc([N+](=O)[O-])cc3)c(F)c(F)c21 [(12)],Δ (a solubility of less than 1% by weight),Δ (a solubility of less than 1% by weight),Magenta,521 nm,16300,,,,,,
CC(C)(C)c1ccc(Nc2c(F)c(F)c3c(c2F)C(=O)c2c(O)ccc(O)c2C3=O)cc1 [(13)],.largecircle. (a solubility in the approximate range of 1 to 3% by weight),.largecircle. (a solubility in the approximate range of 1 to 3% by weight),Magenta,540 nm,11900,,,,,,
COc1ccccc1Nc1c(F)c(F)c2c(c1F)C(=O)c1c(O)ccc(O)c1C2=O [(14)],.largecircle. (a solubility in the approximate range of 1 to 3% by weight),.largecircle. (a solubility in the approximate range of 1 to 3% by weight),Purple,557 nm,15300,,,,,,
COc1ccc(Nc2c(F)c(F)c3c(c2F)C(=O)c2c(O)ccc(O)c2C3=O)cc1 [(15)],.largecircle. (a solubility in the approximate range of 1 to 3% by weight),.largecircle. (a solubility in the approximate range of 1 to 3% by weight),Magenta,542 nm,10200,,,,,,
COc1cccc(Nc2c(F)c(F)c3c(c2F)C(=O)c2c(O)ccc(O)c2C3=O)c1 [(16)],.largecircle. (a solubility in the approximate range of 1 to 3% by weight),.largecircle. (a solubility in the approximate range of 1 to 3% by weight),Magenta,532 nm,16300,,,,,,
CCc1cccc(CC)c1Nc1c(F)c(F)c2c(c1F)C(=O)c1c(O)ccc(O)c1C2=O [(18)],.largecircle. (a solubility in the approximate range of 1 to 3% by weight),.circleincircle. (a solubility of not less than 3% by weight),Magenta,528 nm,14200,,,,,,
CC(C)c1cccc(C(C)C)c1Nc1c(F)c(F)c2c(c1F)C(=O)c1c(O)ccc(O)c1C2=O [(25)],.largecircle. (a solubility in the approximate range of 1 to 3% by weight),.circleincircle. (a solubility of not less than 3% by weight),Magenta,530 nm,12800,,,,,,
O=C1c2c(O)ccc(O)c2C(=O)c2c(F)c(Nc3ccc(S(=O)(=O)O)cc3)c(F)c(F)c21 [(27)],,,,,,521.5 nm,10600,,,,
CCCCCCCCOc1c(F)c2c(c(F)c1Nc1cccc(C(=O)OCC)c1)C(=O)c1c(O)ccc(O)c1C2=O [(34)],.circleincircle. (a solubility of not less than 3% by weight),.circleincircle. (a solubility of not less than 3% by weight),Magenta,531 nm,12400,,,,,,
CC(C)c1cccc(C(C)C)c1Nc1ccc2c(c1)C(=O)c1c(O)ccc(O)c1C2=O [(99)],,,,,,,,Not less than 3 % by weight,560 nm,14850,
O=C1c2c(O)ccc(O)c2C(=O)c2c(F)c(Oc3ccccc3)c(Nc3c(Cl)cccc3Cl)c(F)c21 [(110)],,,,521.0 nm,17900,,,,,,
CCOC(=O)c1cccc(Nc2c(F)c3c(c(F)c2Sc2ccccc2)C(=O)c2c(O)ccc(O)c2C3=O)c1 [(115)],,,,540 nm,17000,,,,,,
CCCCNc1c(F)c(F)c2c(c1F)C(=O)c1c(O)ccc(O)c1C2=O [(117)],.largecircle. (a solubility in the approximate range of 1 to 3% by weight),.largecircle. (a solubility in the approximate range of 1 to 3% by weight),Magenta,533 nm,17900,,,,,,
O=C1c2c(O)ccc(O)c2C(=O)c2c(F)c(NC3CCCCC3)c(F)c(F)c21 [(119)],.largecircle. (a solubility in the approximate range of 1 to 3% by weight),.largecircle. (a solubility in the approximate range of 1 to 3% by weight),Magenta,536 nm,24500,,,,,,
O=C1c2c(O)ccc(O)c2C(=O)c2c(F)c(Nc3ccccc3)c(Nc3ccccc3)c(F)c21 [(120)],Δ (a solubility of less than 1% by weight),Δ (a solubility of less than 1% by weight),Cyan,648 nm,19800,,,,,,
CCOC(=O)c1cccc(Nc2c(F)c3c(c(F)c2Nc2cccc(C(=O)OCC)c2)C(=O)c2c(O)ccc(O)c2C3=O)c1 [(121)],.largecircle. (a solubility in the approximate range of 1 to 3% by weight),.largecircle. (a solubility in the approximate range of 1 to 3% by weight),Cyan,644 nm,20100,,,,,,
CCCCOC(=O)c1ccccc1Nc1c(F)c2c(c(F)c1Nc1ccccc1C(=O)OCCCC)C(=O)c1c(O)ccc(O)c1C2=O [(122)],.largecircle. (a solubility in the approximate range of 1 to 3% by weight),.largecircle. (a solubility in the approximate range of 1 to 3% by weight),Blue,614 nm,14700,,,,,,
N#Cc1ccc(Nc2c(F)c3c(c(F)c2Nc2ccc(C#N)cc2)C(=O)c2c(O)ccc(O)c2C3=O)cc1 [(126)],Δ (a solubility of less than 1% by weight),Δ (a solubility of less than 1% by weight),Blue,605 nm,16600,,,,,,
CC(C)(C)c1ccc(Nc2c(F)c3c(c(F)c2Nc2ccc(C(C)(C)C)cc2)C(=O)c2c(O)ccc(O)c2C3=O)cc1 [(130)],.largecircle. (a solubility in the approximate range of 1 to 3% by weight),.largecircle. (a solubility in the approximate range of 1 to 3% by weight),Cyan,660 nm,26700,,,,,,
COc1ccccc1Nc1c(F)c2c(c(F)c1Nc1ccccc1OC)C(=O)c1c(O)ccc(O)c1C2=O [(131)],.largecircle. (a solubility in the approximate range of 1 to 3% by weight),.largecircle. (a solubility in the approximate range of 1 to 3% by weight),Cyan,661 nm,15600,,,,,,
COc1ccc(Nc2c(F)c3c(c(F)c2Nc2ccc(OC)cc2)C(=O)c2c(O)ccc(O)c2C3=O)cc1 [(132)],.largecircle. (a solubility in the approximate range of 1 to 3% by weight),.largecircle. (a solubility in the approximate range of 1 to 3% by weight),Cyan,649 nm,13400,,,,,,
"CC(C)c1cccc(C(C)C)c1Nc1c(F)c2c(c(Nc3c(C(C)C)cccc3C(C)C)c1Nc1c(C(C)C)cccc1C(C)C)C(=O)c1c(O)ccc(O)c1C2=O [Dye (245), 5,6,7-tris(2,6-diisopropylanilino)-8-fluoroquinizarin]",,,,,,,,,,,29200

# — patent US5608091A, “Quinizarin compound, method for production thereof, and use therefor” (Nippon Shokubai Co., Ltd., priority 1993, dated 1997)
